Assays:
[1] = system: U251 cells; assay: MTS cytotoxicity assay, U251 cells; format: cell-based; conditions: 72 h
Experimental: For CellTiter 96® Aqueous One Solution Cell Proliferation Assay (MTS) (Promega, Madison, WI, USA), cells were seeded at 5 × 10^3 per well in 96-well plates in quadruplicate together a control with no cells to evaluate the background. After 24 h, the culture medium was removed, and fresh medium containing increasing concentrations of chemical compounds was added to cells. […] DMSO was the vehicle used for dilution of the compounds, and its final concentration on cells was less than 0.2%. Medium-only containing wells were included as controls. Cells were incubated with compounds at different concentrations for 72 h, then, 20 µL of CellTiter 96® AQueous One Solution Reagent was added into each well. After 3 h at 37 °C in a humidified, 5% CO2 atmosphere, the absorbance at 492 nm was recorded using an EZREAD400 (Biochrom, Cambridge, United Kingdom) plate reader. The average 490 nm absorbance from the “no cell” control wells was subtracted from all other values to yield background-corrected absorbance. Dose–response curves and CC50 values have been calculated by plotting the absorbance data as a function of inhibitor concentrations and fitting the data by least-squares nonlinear regression, according to the method of Marquardt–Levenberg, with the computer program GraphPad Prism 6.0.
Cells were incubated with a scalar concentration of DDX3X inhibitors, and after 72 h of treatment, cell viability was assessed by cytotoxicity assay. […] Compounds 4, 6, and BA103 were also evaluated against BJ primary fibroblasts; compound 4 has a cytotoxicity value of 84.7 μM; on the contrary, compounds 6 and BA103 were not toxic up to 200 μM concentration. This further excluded a possible nonspecific cytotoxic effect. […] Due to its interesting profile, compound BA103 was further tested against additional pulmonary (A549), breast (MDA-MB-231), colorectal (HCT-116), osteosarcoma (U2OS), rhabdomyosarcoma (RD18), GBM (DBTRG, U87, and U251) and medulloblastoma (DAOY) cancer cell lines.
Figure 5 Cytotoxicity of selected compounds. Compounds were assayed on DU-145, PC3, HepG2, Huh-7, HN6, U251, and U87 cell lines. The concentration of the compound, which reduced the number of viable cells by 50% (CC50), was determined by dose–response curve, and the mean CC50 value for each cell line was calculated by triplicate assays (raw data from U87 and U251 cells with dose–response curves used for the calculation of CC50 in Table S1 and Figure S2).
Table S1: Raw data of optical absorbance at 490 nm from MTS assay in U87 and U251 cells. Tables contain
means with SD of at least 5 different values that were used for preparation of figure 5.

[2] = Parallel artificial membrane permeability assay (PAMPA); format: in vitro ADME; conditions: for Papp at 5 h, 0.5 mM: pH 7.4, read-out: AppP (apparent permeability)
Experimental: Preliminary in vitro ADME analysis was performed to early evaluate the pharmacokinetic (PK) profile of our compounds (Figure 8). Aqueous solubility was calculated by LC-MS-MS analysis. An aliquot of 1 mg of compound was stirred for 24 h at 27 °C in 1 mL of water. The mixture was filtered, and the quantity of solubilized compound was determined. Passive permeability was determined using parallel artificial membrane permeability assay (PAMPA). Microsomal metabolic stability was determined by LC-UV-MS analysis by incubating compounds with human liver microsomes at 37 °C for 60 min (for details, see the Supporting Information).
Chemicals. All solvents, reagents, were from Sigma-Aldrich Srl (Milan, Italy). Dodecane was purchased from Fluka (Milan, Italy). Pooled Male Donors 20 mg mL-1 HLM were from BD Gentest-Biosciences (San Jose, California). Milli-Q quality water (Millipore, Milford, MA, USA) was used. Hydrophobic filter plates (MultiScreen-IP, Clear Plates, 0.45 μm diameter pore size), 96-well microplates, and 96-well UV-transparent microplates were obtained from Millipore (Bedford, MA, USA). […]
Parallel Artificial Membrane Permeability Assay (PAMPA):
Donor solution (0.5 mM) was prepared by diluting 1 mM dimethylsulfoxide (DMSO) compound stock solution using phosphate buffer (pH 7.4, 0.025 M). Filters were coated with 5 μL of a 1% (w/v) dodecane solution of phosphatidylcholine prepared from CHCl3 solution 10% w/v, for intestinal permeability. Donor solution (150 μL) was added to each well of the filter plate. To each well of the acceptor plate were added 300 μL of solution (50% DMSO in phosphate buffer). All compounds were tested in three different plates on different days. The sandwich was incubated for 5 h at room temperature under gentle shaking. After the incubation time, the plates were separated, and samples were taken from both receiver and donor sides and analyzed using LC with UV detection at 280 nm.
LC analysis were performed with a Varian Prostar HPLC system (Varian Analytical Instruments, USA) equipped with a binary pump with a manual injection valve and model Prostar 325 UV-VIS Detector.
Chromatographic separation were conducted using a Polaris C18-A column (150-4.6 mm, 5 μm particle size) at a flow rate of 0.8 mL min-1 with a mobile phase composed of 60% ACN/40% H2O.
Permeability (Papp) for PAMPA was calculated according to the following equation, obtained from Wohnsland and Faller and Sugano et al. equation with some modification in order to obtain permeability […]
where VA is the volume in the acceptor well, VD is the volume in the donor well (cm3), A is the “effective area” of the membrane (cm2), t is the incubation time (s) and r the ratio between drug concentration in the acceptor and equilibrium concentration of the drug in the total volume (VD+VA). Drug concentration is estimated by using the peak area integration.
Membrane retentions (%) were calculated according to the following equation: […]
where r is the ratio between drug concentration in the acceptor and equilibrium concentration, D, A, and Eq represented drug concentration in the donor, acceptor and equilibrium solution, respectively. […]
15 min. The flow rate was 0.2 mL min-1 and injection volume was 5 μL. The instrument operated in positive mode and parameters were: detector 1850 V, drying gas pressure 25.0 psi, desolvation temperature 300.0 °C, nebulizing gas 40.0 psi, needle 5000 V and shield 600 V. Nitrogen was used as nebulizer gas and drying gas.
Collision induced dissociation was performed using Argon as the collision gas at a pressure of 1.8 mTorr in […]
Microsomal Stability Assay.
Each compound in DMSO solution was incubated at 37 °C for 60 min in 125 mM phosphate buffer (pH 7.4), 5 μL of human liver microsomal protein (0.2 mg mL-1), in the presence of a NADPH-generating system at a final […]
reaction was stopped by cooling on ice and adding 1.0 mL of acetonitrile. The reaction mixtures were then centrifuged, and the parent drug and metabolites were subsequently determined by LC-UV-MS. […]

Row | SMILES | AppP (apparent permeability) [2] | Memb. Ret. % (membrane retention) [2] [%] | Papp at 5 h, 0.5 mM [2] [×10⁻⁶ cm/s] | mean absorbance at 490 nm (MTS) ([1]; U251, 0,01 uM) | mean absorbance at 490 nm (MTS) ([1]; U251, 0,1 uM) | mean absorbance at 490 nm (MTS) ([1]; U251, 1 uM) | mean absorbance at 490 nm (MTS) ([1]; U251, 10 uM) | mean absorbance at 490 nm (MTS) ([1]; U251, 100 uM)
1 | CCCCc1cn(-c2ccc(NC(=O)Nc3ccccc3C)cc2)nn1 [Compound 1, reference compound] | 2.86 ×10⁻⁶ cm/s | 19.1 |  | 2,020 | 1,998 | 1,459 | 1,107 | 0,474
2 | CC(C)CCc1cn(-c2ccc(NC(=O)Nc3cccc4cnccc34)cn2)nn1 [Compound 10, 1-(6-(4-Isopentyl-1H-1,2,3-triazol-1-yl)pyridin-3-yl)-3-(isoquinolin-5-yl)urea] |  | 11.3 | 1.21 | 1,904 | 2,003 | 1,581 | 1,667 | 0,809
3 | CCCCc1nnc(-c2ccc(NC(=O)Nc3ccccc3C(F)(F)F)cc2)o1 [Compound 3, 1-(4-(5-Butyl-1,3,4-oxadiazol-2-yl)phenyl)-3-(2-(trifluoromethyl)phenyl)urea] | good values of passive permeability | 10.3 | 9.75 | 1,298 | 1,025 | 1,098 | 0,593 | 0,217

Further lines, with some results ahead:

Row | AppP (apparent permeability) [2] | Memb. Ret. % (membrane retention) [2] [%] | Papp at 5 h, 0.5 mM [2] [×10⁻⁶ cm/s] | SMILES | mean absorbance at 490 nm (MTS) ([1]; U251, 0,01 uM) | mean absorbance at 490 nm (MTS) ([1]; U251, 0,1 uM) | mean absorbance at 490 nm (MTS) ([1]; U251, 1 uM) | mean absorbance at 490 nm (MTS) ([1]; U251, 10 uM) | mean absorbance at 490 nm (MTS) ([1]; U251, 100 uM)
4 | very low passive permeability | 2.3 | < 0.1 | CCCCc1nnc(-c2ccc(NC(=O)Nc3ccccc3C(F)(F)F)cc2)[nH]1 [Compound 4, 1-(4-(5-Butyl-4H-1,2,4-triazol-3-yl)phenyl)-3-(2-(trifluoromethyl)phenyl)urea] | 1,499 | 1,513 | 1,627 | 1,482 | 0,502
5 | good values of passive permeability | 23.9 | 7.47 | CCCCc1cn(-c2ccc(NC(=O)Nc3ccccc3C(F)(F)F)cc2)nn1 [BA103, 1-(4-(4-Butyl-1H-1,2,3-triazol-1-yl)phenyl)-3-(2-(trifluoromethyl)phenyl)urea] | 2,166 | 2,070 | 1,364 | 0,842 | 0,604
6 | good values of passive permeability | 21.6 | 10.2 | CCCCn1nnc(-c2ccc(NC(=O)Nc3ccccc3C(F)(F)F)cc2)n1 [Compound 6, 1-(4-(2-Butyl-2H-tetrazol-5-yl)phenyl)-3-(2-(trifluoromethyl)phenyl)urea] | 1,431 | 1,763 | 2,172 | 1,348 | 0,361

Source: PMC8582824, “Targeting DDX3X Helicase Activity with BA103 Shows Promising Therapeutic Effects in Preclinical Glioblastoma Models” (Cancers, 2021)
